Laboratory results: US20090304692A1, “TRIAZINE COMPOUNDS AS PI3 KINASE AND MTOR INHIBITORS” (Wyeth, priority 2008, published 2009)
pIC50: −log10 of the molar value. “And” between values parts separate entries of the source, which are not always exact repeats. Equal entries are not always repeated. Where two headings read alike, the source gives them in different places.

How the values were obtained:
[1] = tested on: human prostate PC3-mm2 tumor cell line; assay: In vitro cell culture growth assay (MTS), PC3-mm2; format: cell-based; details: Homo sapiens, PC3MM2, 72 h
[2] = tested on: human breast MDA-MB-361 tumor cell line; assay: In vitro cell culture growth assay (MTS), MDA-MB-361; format: cell-based; details: Homo sapiens
PI3K-γ = PI3K-γ (Homo sapiens, UniProt P48736); assay: PI3K-gamma fluorescence polarization assay; details: read-out: IC50 PI3Kγ
PI3K-α = PI3K-α (Homo sapiens, UniProt P42336); assay: PI3K-alpha fluorescence polarization assay; details: read-out: IC50 PI3Kα
Human mTOR (FLAG-TOR) = Human mTOR (FLAG-TOR) (Homo sapiens, UniProt P42345); assay: mTOR kinase assay (DELFIA format, purified enzyme); format: biochemical; details: read-out: IC50 mTOR
[3] = MTS cell growth assay, three days after drug treatment, read-out: IC50 PC3-mm2
[4] = MDA-MB-361, 72 h, MTS cell growth assay, three days after drug treatment, read-out: IC50 MDA-MB-361
[5] = read-out: IC50 PC3-mm2, MTS cell growth assay, three days after drug treatment
[6] = MTS cell growth assay, three days after drug treatment, PC3-mm2 cells, read-out: IC50 PC3-mm2
[7] = 72 h, MTS cell growth assay, three days after drug treatment, MDA-MB-361 cells, read-out: IC50 MDA-MB-361
[8] = MDA-MB-361, 72 h, MTS cell growth assay, three days after drug treatment, MDA-MB-361 cells, read-out: IC50 MDA-MB-361

Chain of Human mTOR (FLAG-TOR) (P42345 1360-2549 limits assumed): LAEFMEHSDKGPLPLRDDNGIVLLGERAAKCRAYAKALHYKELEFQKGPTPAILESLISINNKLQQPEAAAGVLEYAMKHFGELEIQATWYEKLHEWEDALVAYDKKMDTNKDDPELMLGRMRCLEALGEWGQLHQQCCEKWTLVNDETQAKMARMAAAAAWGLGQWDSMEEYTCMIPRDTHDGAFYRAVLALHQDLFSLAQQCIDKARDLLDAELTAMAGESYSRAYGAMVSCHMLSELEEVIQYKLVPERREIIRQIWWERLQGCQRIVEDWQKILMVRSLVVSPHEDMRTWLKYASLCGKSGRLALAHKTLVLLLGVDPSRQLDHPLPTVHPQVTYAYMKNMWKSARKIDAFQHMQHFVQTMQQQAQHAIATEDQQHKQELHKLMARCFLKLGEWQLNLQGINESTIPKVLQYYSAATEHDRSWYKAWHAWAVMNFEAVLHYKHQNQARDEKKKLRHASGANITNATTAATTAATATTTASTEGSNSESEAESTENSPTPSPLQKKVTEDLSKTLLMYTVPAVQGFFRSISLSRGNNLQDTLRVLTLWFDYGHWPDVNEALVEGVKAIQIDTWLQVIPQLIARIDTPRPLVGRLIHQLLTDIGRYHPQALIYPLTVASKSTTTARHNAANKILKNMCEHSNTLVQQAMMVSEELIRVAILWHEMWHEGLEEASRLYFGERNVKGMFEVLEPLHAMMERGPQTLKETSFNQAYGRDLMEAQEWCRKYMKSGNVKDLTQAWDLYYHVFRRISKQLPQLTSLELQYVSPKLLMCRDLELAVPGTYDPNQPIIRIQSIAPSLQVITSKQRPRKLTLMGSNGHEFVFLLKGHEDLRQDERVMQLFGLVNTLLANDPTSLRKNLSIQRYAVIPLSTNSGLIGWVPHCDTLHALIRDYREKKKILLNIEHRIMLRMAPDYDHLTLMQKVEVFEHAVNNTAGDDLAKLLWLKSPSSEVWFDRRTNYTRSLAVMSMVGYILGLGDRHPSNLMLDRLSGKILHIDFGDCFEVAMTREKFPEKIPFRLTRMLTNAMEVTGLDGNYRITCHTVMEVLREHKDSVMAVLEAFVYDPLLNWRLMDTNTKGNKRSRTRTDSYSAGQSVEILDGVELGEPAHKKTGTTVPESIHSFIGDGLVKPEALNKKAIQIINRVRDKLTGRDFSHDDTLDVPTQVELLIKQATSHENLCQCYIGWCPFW
Chain of PI3K-α (P42336 whole entry, species assumed): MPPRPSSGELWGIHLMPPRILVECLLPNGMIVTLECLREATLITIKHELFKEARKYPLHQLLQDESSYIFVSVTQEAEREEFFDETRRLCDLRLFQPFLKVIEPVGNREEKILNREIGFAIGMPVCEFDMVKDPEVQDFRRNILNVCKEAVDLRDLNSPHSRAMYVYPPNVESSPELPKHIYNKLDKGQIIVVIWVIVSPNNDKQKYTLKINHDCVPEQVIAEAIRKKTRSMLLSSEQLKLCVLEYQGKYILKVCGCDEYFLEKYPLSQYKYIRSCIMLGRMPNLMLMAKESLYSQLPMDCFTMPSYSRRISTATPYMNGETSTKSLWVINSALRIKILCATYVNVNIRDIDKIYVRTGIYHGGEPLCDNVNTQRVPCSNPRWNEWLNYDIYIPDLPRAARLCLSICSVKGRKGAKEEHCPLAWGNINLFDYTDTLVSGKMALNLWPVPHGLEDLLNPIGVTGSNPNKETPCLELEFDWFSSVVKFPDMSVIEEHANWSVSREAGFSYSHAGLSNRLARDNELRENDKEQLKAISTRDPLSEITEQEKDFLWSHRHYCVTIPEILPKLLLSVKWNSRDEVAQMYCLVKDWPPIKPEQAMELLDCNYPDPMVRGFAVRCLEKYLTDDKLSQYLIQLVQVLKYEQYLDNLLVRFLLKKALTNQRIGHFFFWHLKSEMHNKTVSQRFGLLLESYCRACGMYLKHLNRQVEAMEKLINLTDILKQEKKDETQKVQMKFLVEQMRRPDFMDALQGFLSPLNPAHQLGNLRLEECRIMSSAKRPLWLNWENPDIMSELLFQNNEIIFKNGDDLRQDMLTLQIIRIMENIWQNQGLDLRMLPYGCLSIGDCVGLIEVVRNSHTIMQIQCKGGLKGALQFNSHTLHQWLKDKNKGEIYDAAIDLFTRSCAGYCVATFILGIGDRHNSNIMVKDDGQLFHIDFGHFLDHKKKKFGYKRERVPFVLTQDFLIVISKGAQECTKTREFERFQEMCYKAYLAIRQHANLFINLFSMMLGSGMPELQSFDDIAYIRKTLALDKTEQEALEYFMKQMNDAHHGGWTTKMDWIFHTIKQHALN
Chain of PI3K-α (P27986 whole entry partner, species assumed): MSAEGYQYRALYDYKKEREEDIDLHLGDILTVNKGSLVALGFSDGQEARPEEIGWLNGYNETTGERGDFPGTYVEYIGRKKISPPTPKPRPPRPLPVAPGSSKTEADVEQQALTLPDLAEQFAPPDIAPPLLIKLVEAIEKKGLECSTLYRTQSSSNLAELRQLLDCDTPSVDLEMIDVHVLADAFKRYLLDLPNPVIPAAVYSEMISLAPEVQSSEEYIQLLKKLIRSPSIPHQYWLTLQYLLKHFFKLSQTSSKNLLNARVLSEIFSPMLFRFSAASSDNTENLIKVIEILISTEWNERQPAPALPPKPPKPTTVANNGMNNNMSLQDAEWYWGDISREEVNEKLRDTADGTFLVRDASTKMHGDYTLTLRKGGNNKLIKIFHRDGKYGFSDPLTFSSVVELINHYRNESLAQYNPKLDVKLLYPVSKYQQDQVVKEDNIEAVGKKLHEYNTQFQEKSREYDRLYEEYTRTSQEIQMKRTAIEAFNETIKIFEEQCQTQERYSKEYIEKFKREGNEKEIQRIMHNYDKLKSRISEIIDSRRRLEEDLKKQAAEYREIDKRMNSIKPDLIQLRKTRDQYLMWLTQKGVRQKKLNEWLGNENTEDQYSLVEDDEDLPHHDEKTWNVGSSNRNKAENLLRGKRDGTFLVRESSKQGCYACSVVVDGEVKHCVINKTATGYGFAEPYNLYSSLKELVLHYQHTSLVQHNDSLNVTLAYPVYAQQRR
Chain of PI3K-γ (P48736 whole entry, species assumed): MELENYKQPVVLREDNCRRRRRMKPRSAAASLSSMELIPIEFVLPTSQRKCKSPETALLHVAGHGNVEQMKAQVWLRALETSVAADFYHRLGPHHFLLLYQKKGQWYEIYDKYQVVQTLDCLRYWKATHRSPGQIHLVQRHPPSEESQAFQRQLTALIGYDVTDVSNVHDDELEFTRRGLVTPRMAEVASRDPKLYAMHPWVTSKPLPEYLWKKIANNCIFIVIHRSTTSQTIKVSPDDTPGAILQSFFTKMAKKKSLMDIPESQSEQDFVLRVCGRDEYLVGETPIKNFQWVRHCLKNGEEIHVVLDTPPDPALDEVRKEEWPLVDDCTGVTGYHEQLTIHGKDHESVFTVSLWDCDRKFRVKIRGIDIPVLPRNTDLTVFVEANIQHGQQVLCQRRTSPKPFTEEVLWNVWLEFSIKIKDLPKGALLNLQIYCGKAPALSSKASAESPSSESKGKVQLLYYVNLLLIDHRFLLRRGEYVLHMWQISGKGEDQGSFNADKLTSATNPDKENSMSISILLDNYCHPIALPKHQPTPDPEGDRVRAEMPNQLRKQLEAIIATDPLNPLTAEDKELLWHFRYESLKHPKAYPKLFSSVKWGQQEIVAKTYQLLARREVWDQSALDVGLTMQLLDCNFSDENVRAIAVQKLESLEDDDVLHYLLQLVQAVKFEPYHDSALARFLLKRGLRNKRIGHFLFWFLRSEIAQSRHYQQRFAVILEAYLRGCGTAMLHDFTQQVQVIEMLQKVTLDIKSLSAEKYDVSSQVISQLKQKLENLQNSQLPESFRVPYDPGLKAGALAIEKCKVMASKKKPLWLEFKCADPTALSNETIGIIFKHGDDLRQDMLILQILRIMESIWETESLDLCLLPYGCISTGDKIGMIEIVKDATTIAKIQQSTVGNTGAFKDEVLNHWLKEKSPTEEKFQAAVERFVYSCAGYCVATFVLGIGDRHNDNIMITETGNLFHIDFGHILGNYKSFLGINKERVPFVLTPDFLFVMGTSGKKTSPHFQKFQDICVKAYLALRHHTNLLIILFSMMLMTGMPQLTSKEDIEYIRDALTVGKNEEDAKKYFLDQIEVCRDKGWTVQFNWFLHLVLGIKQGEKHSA

pIC50 [1, 3]	pIC50 [2, 4]	pIC50 (PI3K-γ)	pIC50 (PI3K-α)	pIC50 (Human mTOR (FLAG-TOR))	pIC50 [1, 6]	SMILES	also measured
7.64	7.32	7.49	8.05	9.12		O=C(Nc1ccc(-c2nc(OC3CCOCC3)nc(N3CCOCC3)n2)cc1)Nc1cccnc1 [Example 61, 1-{4-[4-morpholin-4-yl-6-(tetrahydro-2H-pyran-4-yloxy)-1,3,5-triazin-2-yl]phenyl}-3-pyridin-3-ylurea]	
	> 8.52	8.15	9.52	9.24		CN(C)CCNC(=O)c1ccc(NC(=O)Nc2ccc(-c3nc(N4CCOCC4)nc(N4CCOCC4)n3)cc2)cc1 [Example 68, N-(2-(dimethylamino)ethyl)-4-(3-(4-(4,6-dimorpholino-1,3,5-triazin-2-yl)phenyl)ureido)benzamide]	pIC50 [1, 5]: 7.96
6.83	6.98	7.29	7.74	8.69		O=C(Nc1ccccc1)Nc1ccc(-c2nc(N3CCOCC3)nc(N3CC4CCC(C3)O4)n2)cc1 [Example 23, 1-{4-[4-morpholin-4-yl-6-(8-oxa-3-azabicyclo[3.2.1]oct-3-yl)-1,3,5-triazin-2-yl]phenyl}-3-phenylurea]	
		7.32	8.26	7.89	6.46	CN(C)CCCNC(=O)c1ccc(NC(=O)Nc2ccc(-c3nc(-c4cccs4)nc(N4CCOCC4)n3)cc2)cc1 [Example 570, N-[3-(dimethylamino)propyl]-4-[({4-[4-morpholin-4-yl-6-(2-thienyl)-1,3,5-triazin-2-yl]phenyl}carbamoyl)amino]benzamide]	pIC50 [2, 7]: 7.55
6.00	6.30	7.05	8.10	7.86		O=C(Nc1ccccc1)Nc1ccc(-c2nc(NC3CNC3)nc(N3CCOCC3)n2)cc1 [Example 17, 1-{4-[4-(azetidin-3-ylamino)-6-morpholin-4-yl-1,3,5-triazin-2-yl]phenyl}-3-phenylurea]	
5.71	6.10	5.05	7.41	7.37	5.71	CN(C)c1ccc(NC(=O)Nc2ccc(-c3nc(N4CCOCC4)nc(N4CCC5(CC4)OCCO5)n3)cc2)cc1 [Example 133, 1-[4-(dimethylamino)phenyl]-3-{4-[4-(1,4-dioxa-8-azaspiro[4.5]dec-8-yl)-6-morpholin-4-yl-1,3,5-triazin-2-yl]phenyl}urea]	pIC50 (PI3K-γ; listed as 708): 5.05; pIC50 (PI3K-α; listed as 708): 7.40
6.07	6.22	6.06	7.29	7.94		CC(C)(C)OC(=O)N1CC(Nc2nc(-c3ccc(NC(=O)Nc4ccc(F)cc4)cc3)nc(N3CCOCC3)n2)C1 [Example 13, tert-butyl 3-{[4-(4-{[(4-fluorophenyl)carbamoyl]-amino}phenyl)-6-morpholin-4-yl-1,3,5-triazin-2-yl]amino}azetidine-1-carboxylate]	
		7.02	7.59	8.40	6.88	CCCCN1CCN(C(=O)c2ccc(NC(=O)Nc3ccc(-c4nc(N5CCOC[C@@H]5C)nc(N5CCOC[C@@H]5C)n4)cc3)cc2)CC1 [Example 629, 1-(4-{4,6-bis[(3S)-3-methylmorpholin-4-yl]-1,3,5-triazin-2-yl}phenyl)-3-{4-[(4-butylpiperazin-1-yl)carbonyl]phenyl}urea]	pIC50 [2, 7]: 7.55
		8.12	9.40	8.81	7.92	CC(C)N1CCN(C(=O)c2ccc(NC(=O)Nc3ccc(-c4nc(N5CCOCC5)nc(N5CCOCC5)n4)cc3)cc2)CC1 [Example 515, 1-[4-(4,6-dimorpholin-4-yl-1,3,5-triazin-2-yl)phenyl]-3-(4-{[4-(1-methylethyl)piperazin-1-yl]carbonyl}phenyl)urea]	pIC50 [2, 8]: 8.52
7.00	7.08	6.69	7.72	7.55		O=C(Nc1ccncc1)Nc1ccc(-c2nc(N3CCOCC3)nc(N3C[C@@H]4C[C@H]3CO4)n2)cc1 [Example 189, 1-(4-{4-morpholin-4-yl-6-[(1S,4S)-2-oxa-5-azabicyclo[2.2.1]hept-5-yl]-1,3,5-triazin-2-yl}phenyl)-3-pyridin-4-ylurea]	
		7.47	8.49	8.82		CC(C)N1CCN(C(=O)c2ccc(NC(=O)Nc3ccc(-c4nc(N5CCOCC5)nc(N5CC6CCC5CO6)n4)cc3)cc2)CC1 (stereo not drawn) [Example 811, 1-(4-{[4-(1-methylethyl)piperazin-1-yl]carbonyl}phenyl)-3-{4-[4-morpholin-4-yl-6-(2-oxa-5-azabicyclo[2.2.2]oct-5-yl)-1,3,5-triazin-2-yl]phenyl}urea]	pIC50 ([1]; PC3-mm2 cells, MTS, three days after drug treatment, read-out: IC50 PC3-mm2): 7.72; pIC50 ([2]; MDA-MB-361, 72 h, MDA-MB-361 cells, MTS, three days after drug treatment, read-out: IC50 MDA-MB-361): 8.70
6.48	6.68	7.00	8.05	7.55		Cc1nc(-c2ccc(NC(=O)Nc3ccc(C(=O)N(C)CCN(C)C)cc3)cc2)nc(N2CCOCC2)n1 [Example 165, N-[2-(dimethylamino)ethyl]-N-methyl-4-({[4-(4-methyl-6-morpholin-4-yl-1,3,5-triazin-2-yl)phenyl]carbamoyl}amino)benzamide]	
		7.05	7.84	8.70	6.89	COC(=O)c1ccc(NC(=O)Nc2ccc(-c3nc(N4CCCOCC4)nc(N4CCOCC4)n3)cc2)cc1 [Example 567, methyl 4-[({4-[4-morpholin-4-yl-6-(1,4-oxazepan-4-yl)-1,3,5-triazin-2-yl]phenyl}carbamoyl)amino]benzoate]	pIC50 [2, 8]: 6.97
6.24	6.28	6.56	7.52	7.22 and 7.23	6.24	CN1CCN(CCCc2nc(-c3ccc(NC(=O)Nc4ccncc4)cc3)nc(N3CCOCC3)n2)CC1 [Example 277, 1-(4-{4-[3-(4-methylpiperazin-1-yl)propyl]-6-morpholin-4-yl-1,3,5-triazin-2-yl}phenyl)-3-pyridin-4-ylurea]	pIC50 (PI3K-γ; listed as 734): 6.68; pIC50 (PI3K-α; listed as 734): 7.59
		7.30	8.46	8.30	6.53	CN(C)CCCNC(=O)c1ccc(NC(=O)Nc2ccc(-c3nc(N4CCCCC4)nc(N4CCOCC4)n3)cc2)cc1 [Example 610, N-[3-(dimethylamino)propyl]-4-({[4-(4-morpholin-4-yl-6-piperidin-1-yl-1,3,5-triazin-2-yl)phenyl]carbamoyl}amino)benzamide]	pIC50 [2, 7]: 7.55
		7.07	7.89	8.60		COC(=O)c1ccc(NC(=O)Nc2ccc(-c3nc(N4CCOCC4)nc(N4CCOCC4)n3)cc2)cc1 [Example 58, methyl 4-({[4-(4,6-dimorpholin-4-yl-1,3,5-triazin-2-yl)phenyl]carbamoyl}amino)benzoate]	pIC50 [1, 5]: 7.35; pIC50 ([2]; MDA-MB-361, 72 h, read-out: IC50 MDA-MB-361, MTS cell growth assay, three days after drug treatment): 6.94
		7.74	8.59	8.70	7.26	O=C(Nc1ccncc1)Nc1ccc(-c2nc(N3CCCOCC3)nc(N3CCOCC3)n2)cc1 [Example 566, 1-{4-[4-morpholin-4-yl-6-(1,4-oxazepan-4-yl)-1,3,5-triazin-2-yl]phenyl}-3-pyridin-4-ylurea]	pIC50 [2, 7]: 7.55
7.10	7.08	7.68	8.52	8.00 and 8.05		Cc1cc(NC(=O)Nc2ccc(-c3nc(N4CCOCC4)nc(N4CCOCC4)n3)cc2)ccn1 [Example 49, 1-[4-(4,6-dimorpholin-4-yl-1,3,5-triazin-2-yl)phenyl]-3-(2-methylpyridin-4-yl)urea]	
		8.00	> 8.72	9.92	8.10	CN(C)CCNC(=O)c1ccc(NC(=O)Nc2ccc(-c3nc(C4CCOCC4)nc(N4CCOCC4)n3)cc2)cc1 [Example 512, N-[2-(dimethylamino)ethyl]-4-[({4-[4-morpholin-4-yl-6-(tetrahydro-2H-pyran-4-yl)-1,3,5-triazin-2-yl]phenyl}carbamoyl)amino]benzamide]	pIC50 [2, 7]: 9.00
7.31	7.96	7.62	8.70	8.15		CCc1nc(-c2ccc(NC(=O)Nc3ccc(C(=O)N(C)CCN(C)C)cc3)cc2)nc(N2CCOCC2)n1 [Example 242, N-[2-(dimethylamino)ethyl]-4-({[4-(4-ethyl-6-morpholin-4-yl-1,3,5-triazin-2-yl)phenyl]carbamoyl}amino)-N-methylbenzamide]	

SMILES	pIC50 [1, 3]	pIC50 [2, 4]	pIC50 (PI3K-γ)	pIC50 (PI3K-α)	pIC50 (Human mTOR (FLAG-TOR))	pIC50 [1, 6]	also measured
O=C(Nc1ccc(C(=O)O)cc1)Nc1ccc(-c2nc(N3CCOCC3)nc(N3C4COCC3COC4)n2)cc1 [Example 771, 4-[({4-[4-(3,7-dioxa-9-azabicyclo[3.3.1]non-9-yl)-6-morpholin-4-yl-1,3,5-triazin-2-yl]phenyl}carbamoyl)amino]benzoic acid]			7.18	7.71	9.67	< 6.00	pIC50 [2, 7]: < 6.00
